Results: the NIST ThermoML archive (doi:10.1016/j.jct.2009.07.020)

Legend:
[1] = xn = mol fraction of the nth substance listed; conditions: 101 kPa, Liquid; for speed of sound: Sing-around technique in a fixed-path interferometer; for mass density: Vibrating tube method
[2] = 293.15 K, 101.33 kPa, Liquid; for speed of sound: Sing-around technique in a fixed-path interferometer; for mass density: Vibrating tube method

ClC(Cl)=C(Cl)Cl [tetrachloroethene] + CCCCCCCCCCO
[1]
Conditions | mass density, 293.15 K [kg/m3] | mass density, 313.15 K [kg/m3] | speed of sound, 293.15 K [m/s] | speed of sound, 313.15 K [m/s]
x1 = 0.057 | 854.607 | 840.425 | 1378.1 | 1310.7
x1 = 0.1355 | 890.745 | 875.885 | 1350.2 | 1283.1
x1 = 0.2186 | 932.241 | 916.585 | 1319.8 | 1252.8
x1 = 0.2882 | 969.944 | 953.338 | 1294.8 | 1228.4
x1 = 0.3824 | 1025.8 | 1007.72 | 1260.6 | 1195
x1 = 0.4464 | 1067.31 | 1048.17 | 1237.2 | 1172
x1 = 0.499 | 1103.86 | 1083.69 | 1218.5 | 1153.5
x1 = 0.5849 | 1168.91 | 1146.94 | 1187.2 | 1122.7
x1 = 0.6417 | 1216.01 | 1192.81 | 1166.5 | 1102.9
x1 = 0.7175 | 1284.75 | 1259.72 | 1139.4 | 1076
x1 = 0.7786 | 1345.73 | 1319.21 | 1117.7 | 1054.1
x1 = 0.8527 | 1427.55 | 1398.72 | 1092.4 | 1029.3
x1 = 0.9003 | 1485.31 | 1455.08 | 1077.6 | 1015
x1 = 0.941 | 1538.45 | 1507.24 | 1065.9 | 1005
x1 = 1 | 1622.39 | 1588.98 | 1053.8 | 993.96

CCCCCCCCCCO [decan-1-ol]
[2]
Conditions | mass density [kg/m3] | speed of sound [m/s]
– | 829.991 | 1396.4

ClC(Cl)=C(Cl)Cl [tetrachloroethene]
[2]
Conditions | mass density [kg/m3] | speed of sound [m/s]
– | 1622.39 | 1053.8

CCCCCCCCCCO [decan-1-ol] + BrCCBr
[1], x2 = 0
Conditions | mass density [kg/m3] | speed of sound [m/s]
293.15 K | 829.991 | 1396.4
313.15 K | 816.264 | 1328.7

CCCCCCCCCCO [decan-1-ol] + ClCCCl
[1], x2 = 0
Conditions | mass density [kg/m3] | speed of sound [m/s]
293.15 K | 829.991 | 1396.4
313.15 K | 816.264 | 1328.7
